Results: article PMC12788799, “Affinity-guided labeling reveals P2X7 nanoscale membrane redistribution during BV2 microglial activation” (eLife, 2026)
Where a chain is given by its changes, count along the chain named.

Key:
Type in all cases: cell-based
rat P2X7 (rP2X7) [1] = molecular target: T1, rat P2X7 (rP2X7) (Rattus norvegicus, UniProt Q64663); assay: Whole-cell patch-clamp, inhibition of BzATP-evoked currents at […] in HEK293T cells; also blocks X7-uP labeling; parameters: gene P2rx7
T1 sequence (Q64663 1-595): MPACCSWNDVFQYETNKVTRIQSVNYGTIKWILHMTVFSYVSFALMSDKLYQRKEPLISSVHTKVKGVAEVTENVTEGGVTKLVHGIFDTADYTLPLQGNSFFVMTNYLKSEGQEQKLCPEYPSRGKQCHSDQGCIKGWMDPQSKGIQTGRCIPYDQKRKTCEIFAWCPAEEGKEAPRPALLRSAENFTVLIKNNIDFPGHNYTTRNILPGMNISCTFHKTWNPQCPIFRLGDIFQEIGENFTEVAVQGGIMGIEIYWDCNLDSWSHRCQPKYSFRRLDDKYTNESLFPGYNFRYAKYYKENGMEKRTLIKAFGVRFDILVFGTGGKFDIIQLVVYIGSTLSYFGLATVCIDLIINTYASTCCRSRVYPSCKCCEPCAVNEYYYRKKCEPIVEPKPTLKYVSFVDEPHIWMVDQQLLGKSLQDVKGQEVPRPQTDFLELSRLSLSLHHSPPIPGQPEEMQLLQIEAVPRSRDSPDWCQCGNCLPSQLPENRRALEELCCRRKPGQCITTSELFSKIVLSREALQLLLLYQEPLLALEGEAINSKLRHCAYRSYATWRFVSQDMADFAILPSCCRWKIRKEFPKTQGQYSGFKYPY

mouse P2X7 [2] = molecular target: T2, mouse P2X7 (Mus musculus, UniProt Q9Z1M0); assay: Competition:[…] blocks X7-uP labeling of endogenous P2X7 (pull-down western blot, confocal)
T2 construct: gene P2rx7; endogenous P2X7 in BV2 cells
T2 sequence (Q9Z1M0 1-595): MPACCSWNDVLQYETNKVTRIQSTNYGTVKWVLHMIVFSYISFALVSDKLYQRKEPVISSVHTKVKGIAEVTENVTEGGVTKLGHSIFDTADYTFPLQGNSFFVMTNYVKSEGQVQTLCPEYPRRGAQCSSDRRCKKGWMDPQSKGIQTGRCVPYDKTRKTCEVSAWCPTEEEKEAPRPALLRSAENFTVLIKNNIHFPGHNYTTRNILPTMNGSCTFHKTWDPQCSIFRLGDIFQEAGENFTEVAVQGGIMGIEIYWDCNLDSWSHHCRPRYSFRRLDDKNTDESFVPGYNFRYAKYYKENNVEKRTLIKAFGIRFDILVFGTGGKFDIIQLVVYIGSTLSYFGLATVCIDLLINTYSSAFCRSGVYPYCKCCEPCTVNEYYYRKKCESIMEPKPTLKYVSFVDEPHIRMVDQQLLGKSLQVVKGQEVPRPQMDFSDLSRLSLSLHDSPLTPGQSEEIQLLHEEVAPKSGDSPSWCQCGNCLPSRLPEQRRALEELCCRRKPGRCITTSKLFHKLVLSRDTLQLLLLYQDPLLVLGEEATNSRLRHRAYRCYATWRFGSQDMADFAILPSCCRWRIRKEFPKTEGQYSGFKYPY

rat P2X7 (rP2X7) [3] = molecular target: T3, rat P2X7 (rP2X7) (Rattus norvegicus, UniProt Q64663, K82A/K117A); assay: Whole-cell patch-clamp, reversible inhibition of BzATP-evoked currents by […] X7-uP in HEK293T cells
T3 construct: gene P2rx7; P2X7-mScarlet background
T3 sequence (Q64663 1-595 K82A/K117A): T1 sequence (Q64663 1-595) with K82A, K117A

mouse P2X7 [4] = molecular target: T2, mouse P2X7; assay: Covalent biotinylation of endogenous receptor with […] X7-uP, pull-down western blot and confocal imaging, blocked by AZ10606120 or A740003
rat P2X7 (rP2X7) [5] = molecular target: T1, rat P2X7 (rP2X7); assay: Kinetics of covalent biotinylation in HEK293T cells (pull-down western blot); whole-cell patch-clamp inhibition of BzATP currents; parameters: gene P2rx7; P2X7c-myc

| % labeled (mouse P2X7 [4]) [% labeled] | Kd (rat P2X7 (rP2X7) [5]) [µM] | SMILES | inhibition at 1 µM (rat P2X7 (rP2X7) [1]) [%] | Competition: 10 μM blocks X7-uP labeling of endogenous P2X7 (pull-down western b) (mouse P2X7 [2]) | Whole-cell patch-clamp, reversible inhibition of BzATP-evoked currents by 0.5 μM (rat P2X7 (rP2X7) [3]) |
| --- | --- | --- | --- | --- | --- |
| – | – | O=C(CC12CC3CC(CC(C3)C1)C2)Nc1cccc2nc(NCCNCCO)ccc12 [AZ10606120] | 99.7 | This band disappeared upon co-incubation with AZ10606120 or A740003 | – |
| 80 | 7.3 | N#CCN(C(=O)CCOCCOCCOCCOCCNC(=O)CCCC[C@@H]1SC[C@@H]2NC(=O)N[C@@H]21)S(=O)(=O)c1ccc(C(=O)NCCNc2ccc3c(NC(=O)CC45CC6CC(CC(C6)C4)C5)cccc3n2)cc1 [X7-uP, N-(2-((5-(2-(adamantan-1-yl)acetamido)quinolin-2-yl)amino)ethyl)–4-(N-(cyanomethyl)-N-(17-oxo-21-((3aR,4R,6aS)–2-oxo-hexahydro-1H-thieno[3,4-d]imidazol-4-yl)–4,7,10,13-tetraoxa-16-azahenico-sanoyl)sulfamoyl)benzamide] | – | – | the double K82A/K117A mutant did not affect the ability of X7-uP to inhibit BzATP-evoked currents |
